Results as given in patent US20210137861A1, “METHODS FOR REDUCING ACCUMULATED PATHOLOGIC TAU PROTEIN” (HOUGH EAR INSTITUTE, priority 2018, published 2021).

Tested on: phospho-Tau (S202,T205) in SH-SY5Y neuroblastoma cells
Test: Okadaic acid-induced p-Tau accumulation in SH-SY5Y cells, co-incubation (AT8 immunoblot)
Assay type: cell-based
Conditions: 100 nM OA alone, 3 h
Protocol: Reproducible hyperphosphorylated p-Tau accumulation can be induced in the SH-SY5Y neuroblastoma cell line following incubation with Okadaic Acid (OA), a small molecule inhibitor of protein phosphatase 2A (PP2A), according to the method described by Boban et al., J Neurosci Methods., S0165-0270(18)30297-8 (2018). In this experiment, SH-SY5Y cells were incubated with 100 nM OA alone or in combination with 2,4-DSPBN+NAC for three hours prior to harvesting the cells for immunoblot evaluations with the AT8 phospho-Tau (S202,T205) antibody or the housekeeping protein, GAPDH. […] Two doses of combinatorial 2,4-DSPBN+NAC (185 μM 2,4-DSPBN/500 μM NAC or 93 μM 2,4-DSPBN/250 μM NAC) were used in this experiment, each of which used a molar ratio that mimics the equal mass:mass ratios used in the in vivo studies (i.e. a 1:1 mass ratio of 2,4-DSPBN and NAC is equivalent to a 1:2.7 molar ratio).
Biological and technical replicates of the experiment described in FIG. 3 were conducted, and p-Tau(S202,T205) immunoblots (AT8 antibody) were subjected to densitometric evaluations of relative protein levels, using National Institutes of Health ImageJ software and the internal GAPDH protein standard. […]

## C=C1[C@@H](O)[C@@H]2O[C@]3(CC[C@H](/C=C/[C@@H](C)[C@@H]4CC(C)=C[C@@]5(O[C@H](C[C@@](C)(O)C(=O)O)CC[C@H]5O)O4)O3)CC[C@H]2O[C@@H]1[C@@H](O)C[C@H](C)[C@H]1O[C@@]2(CCCCO2)CC[C@H]1C [OA, Okadaic Acid]
  phospho-Tau(S202,T205) level relative to untreated control cells (immunoblot, FIG. 3): marked phospho-Tau(S202,T205) accumulation
